Measured values from patent publication US20240308994A1, “ISOXAZOLE DERIVATIVE OR PHARMACEUTICALLY ACCEPTABLE SALT THEREOF AND USE THEREOF” (INDUSTRY-UNIVERSITY COOPERATION FOUNDATION HANYANG …, priority 2021, published 2024).
Where two headings read alike, the source gives them in different places.

Target: T1, FMS (h) (Homo sapiens, UniProt P07333)
T1 construct: purchased Reaction Biology Corp. (Kinase HotSpot service)
Assay: Kinase HotSpot radiometric assay, activity on CSF-1R (FMS)
Type: biochemical

[1] = Table 3, read-out: IC50 (M) on FMS

T1 sequence (P07333 20-972): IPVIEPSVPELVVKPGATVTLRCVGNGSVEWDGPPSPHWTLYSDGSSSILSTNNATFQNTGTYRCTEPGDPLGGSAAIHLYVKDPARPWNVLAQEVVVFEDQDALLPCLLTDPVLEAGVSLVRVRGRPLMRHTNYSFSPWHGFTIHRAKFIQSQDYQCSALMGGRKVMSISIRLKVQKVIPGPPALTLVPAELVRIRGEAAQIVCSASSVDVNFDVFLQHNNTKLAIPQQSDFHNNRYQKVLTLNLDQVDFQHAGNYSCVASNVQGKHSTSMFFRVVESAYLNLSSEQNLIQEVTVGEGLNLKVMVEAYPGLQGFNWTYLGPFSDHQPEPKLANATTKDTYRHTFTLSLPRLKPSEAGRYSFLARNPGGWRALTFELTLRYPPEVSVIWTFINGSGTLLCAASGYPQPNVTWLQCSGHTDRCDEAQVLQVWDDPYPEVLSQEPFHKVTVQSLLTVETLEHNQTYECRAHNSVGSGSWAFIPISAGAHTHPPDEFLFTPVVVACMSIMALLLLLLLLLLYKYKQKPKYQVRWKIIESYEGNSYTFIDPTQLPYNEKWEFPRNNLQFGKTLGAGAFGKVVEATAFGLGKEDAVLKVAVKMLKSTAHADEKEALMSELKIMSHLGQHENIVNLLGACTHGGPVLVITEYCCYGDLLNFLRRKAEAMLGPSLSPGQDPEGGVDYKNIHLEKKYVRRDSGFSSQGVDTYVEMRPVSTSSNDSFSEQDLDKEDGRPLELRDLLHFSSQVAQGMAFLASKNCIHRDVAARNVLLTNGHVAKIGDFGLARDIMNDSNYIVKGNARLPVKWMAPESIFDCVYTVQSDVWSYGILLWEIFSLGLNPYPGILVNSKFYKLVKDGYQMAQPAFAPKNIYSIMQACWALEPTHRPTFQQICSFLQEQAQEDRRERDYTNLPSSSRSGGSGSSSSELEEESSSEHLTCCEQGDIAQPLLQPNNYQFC

| Compound | IC50 [1] [M] | IC50 (Table 1, read-out: IC50) [M] |
| --- | --- | --- |
| Cc1cc(C(=O)Nc2cc(NC(=O)c3ccc(-c4ccccc4)cc3)ccc2C)no1 [Compound 5f, N-(5-([1,1′-biphenyl]-4-carboxamido)-2-methylphenyl)-5-methylisoxazole-3-carboxamide] | > 1e-06 | – |
| Cc1cc(C(=O)Nc2cc(NC(=O)c3cc(N4CCN(C)CC4)cc(-n4ccnc4C)c3)ccc2C)no1 [Compound 5g, 5-methyl-N-(2-methyl-5-(3-(2-methyl-1H-imidazol-1-yl)-5-(4-methylpiperazin-1-yl)benzamido)phenyl)isoxazole-3-carboxamide] | > 1e-06 | – |
| Cc1cc(C(=O)Nc2cc(NC(=O)c3cc(NC4CCN(C)CC4)cc(-n4ccnc4C)c3)ccc2C)no1 [Compound 5h, 5-methyl-N-(2-methyl-5-(3-(2-methyl-1H-imidazol-1-yl)-5-((1-methylpiperidin-4-yl)amino)benzamido)phenyl)isoxazole-3-carboxamide] | > 1e-06 | – |
| Cc1cc(C(=O)Nc2cc(NC(=O)c3cc(N[C@@H]4CCCN(C)C4)cc(C(F)(F)F)c3)ccc2C)no1 [Compound 5l, (R)-5-Methyl-N-(2-methyl-5-(3-((1-methylpiperidin-3-yl)amino)-5-(trifluoromethyl)benzamido)phenyl)isoxazole-3-carboxamide] | > 1e-06 | – |
| Cc1cc(C(=O)Nc2cc(NC(=O)c3cc(N4CCC([N+](C)(C)C)C4)cc(C(F)(F)F)c3)ccc2C)no1 (stereo not drawn) [Compound 5m, N,N,N-trimethyl-1-(3-((4-methyl-3-(5-methylisoxazole-3-carboxamido)phenyl)carbamoyl)-5-(trifluoromethyl)phenyl)pyrrolidin-3-aminium] | > 1e-06 | – |
| Cc1cc(C(=O)Nc2cc(NC(=O)c3ccc4ccccc4n3)ccc2C)no1 [Compound 5q, 5-methyl-N-(2-methyl-5-(quinoline-2-carboxamido)phenyl)isoxazole-3-carboxamide] | > 1e-06 | – |
| Cc1cc(C(=O)Nc2cc(NC(=O)c3ccc4nn[nH]c4c3)ccc2C)no1 [Compound 5r, N-(5-(1H-benzo[d][1,2,3]triazole-6-carboxamido)-2-methylphenyl)-5-methylisoxazole-3-carboxamide] | > 1e-06 | – |
| Cc1cc(C(=O)Nc2cc(NC(=O)c3cnn(-c4ccccc4)c3C(F)(F)F)ccc2C)no1 [Compound 5s, 5-methyl-N-(2-methyl-5-(1-phenyl-5-(trifluoromethyl)-1H-pyrazole-4-carboxamido)phenyl)isoxazole-3-carboxamide] | > 1e-06 | – |
| Cc1cc(C(=O)Nc2cc(NC(=O)c3ccc4cn[nH]c4c3)ccc2C)no1 [Compound 5t, N-(5-(1H-indazole-6-carboxamido)-2-methylphenyl)-5-methylisoxazole-3-carboxamide] | > 1e-06 | – |
| Cc1cc(C(=O)Nc2ccc(NC3CCOCC3)nc2C)no1 [Compound 17b, 5-methyl-N-(2-methyl-6-((tetrahydro-2H-pyran-4-yl)amino)pyridin-3-yl)isoxazole-3-carboxamide] | < 1e-07 | – |
| Cc1cc(C(=O)Nc2ccc(C3CCNC3)cc2C2=CCCCC2)no1 (stereo not drawn) [Compound 60a, 5-methyl-N-(5-(pyrrolidin-3-yl)-2′,3′,4′,5′-tetrahydro-[1,1′-biphenyl]-2-yl)isoxazole-3-carboxamide] | 1e-07 to 1e-06 | 1e-07 to 1e-06 |
| Cc1cc(C(=O)Nc2ccc(C3CCNCC3)cc2C2=CCCCC2)no1 [Compound 60b, 5-methyl-N-(5-(piperidin-4-yl)-2′,3′,4′,5′-tetrahydro-[1,1′-biphenyl]-2-yl)isoxazole-3-carboxamide] | < 1e-07 | < 1e-07 |
| Cc1cc(C(=O)Nc2ccc(C3CCNCC3)cc2C2=CCCC2)no1 [Compound 61b, N-(2-(Cyclopent-1-en-1-yl)-4-(piperidin-4-yl)phenyl)-5-methylisoxazole-3-carboxamide] | > 1e-06 | > 1e-06 |
| Cc1cc(C(=O)Nc2ccc(C3CCNCC3)cc2-c2cncnc2)no1 [Compound 62b, 5-methyl-N-(4-(piperidin-4-yl)-2-(pyrimidin-5-yl)phenyl)isoxazole-3-carboxamide] | > 1e-06 | > 1e-06 |
| Cc1cc(C(=O)Nc2ccc(C3CCNCC3)cc2C2=CCC(C)(C)CC2)no1 [Compound 64b, N-(4′,4′-dimethyl-5-(piperidin-4-yl)-2′,3′,4′,5′-tetrahydro-[1,1′-biphenyl]-2-yl)-5-methylisoxazole-3-carboxamide] | < 1e-07 | < 1e-07 |
| Cc1cc(C(=O)Nc2ccc(C3CCCNCC3)cc2C2=CCC(C)(C)CC2)no1 (stereo not drawn) [Compound 64c, N-(5-(azepan-4-yl)-4′,4′-dimethyl-2′,3′,4′,5′-tetrahydro-[1,1′-biphenyl]-2-yl)-5-methylisoxazole-3-carboxamide] | < 1e-07 | < 1e-07 |
| Cc1cc(C(=O)Nc2ccc(C3CCNCC3)cc2C2CCCCC2)no1 [Compound 65b, N-(2-cyclohexyl-4-(piperidin-4-yl)phenyl)-5-methylisoxazole-3-carboxamide] | > 1e-06 | > 1e-06 |
| Cc1cc(C(=O)Nc2ccc(C3CCNCC3)cc2C2CCCC2)no1 [Compound 66b, N-(2-Cyclopentyl-4-(piperidin-4-yl)phenyl)-5-methylisoxazole-3-carboxamide] | > 1e-06 | > 1e-06 |
| Cc1cc(C(=O)Nc2ccc(C3CCN(C)CC3)cc2C2CCCCC2)no1 [Compound 69b, N-(2-cyclohexyl-4-(1-methylpiperidin-4-yl)phenyl)-5-methylisoxazole-3-carboxamide] | > 1e-06 | > 1e-06 |
| Cc1cc(C(=O)Nc2ccc(C3CC[N+](C)(C)CC3)cc2C2=CCCCC2)no1 [Compound 79b, 1,1-dimethyl-4-(6-(5-methylisoxazole-3-carboxamido)-2′,3′,4′,5′-tetrahydro-[1,1′-biphenyl]-3-yl)piperidin-1-ium] | < 1e-07 | – |
| Cc1cc(C(=O)Nc2ccc(C3CCC[N+](C)(C)CC3)cc2C2=CCCCC2)no1 (stereo not drawn) [Compound 79c, 1,1-dimethyl-4-(6-(5-methylisoxazole-3-carboxamido)-2′,3′,4′,5′-tetrahydro-[1,1′-biphenyl]-3-yl)azepan-1-ium] | < 1e-07 | – |

Further lines, results first:

| IC50 [1] [M] | IC50 (Table 1, read-out: IC50) [M] | Compound |
| --- | --- | --- |
| < 1e-07 | < 1e-07 | Cc1cc(C(=O)Nc2ccc(C3CCCNCC3)cc2C2=CCCCC2)no1 (stereo not drawn) [Compound 60c, N-(5-(azepan-4-yl)-2′,3′,4′,5′-tetrahydro-[1,1′-biphenyl]-2-yl)-5-methylisoxazole-3-carboxamide] |
| < 1e-07 | < 1e-07 | Cc1cc(C(=O)Nc2ccc(C3CCNCC3)cc2C2=CCC(C)CC2)no1 (stereo not drawn) [Compound 63b, 5-Methyl-N-(4′-methyl-5-(piperidin-4-yl)-2′,3′,4′,5′-tetrahydro-[1,1′-biphenyl]-2-yl)isoxazole-3-carboxamide] |
| < 1e-07 | < 1e-07 | Cc1cc(C(=O)Nc2ccc(C3CCN(C)CC3)cc2C2=CCCCC2)no1 [Compound 67b, 5-methyl-N-(5-(1-methylpiperidin-4-yl)-2′,3′,4′,5′-tetrahydro-[1,1′-biphenyl]-2-yl)isoxazole-3-carboxamide] |
| 1e-07 to 1e-06 | 1e-07 to 1e-06 | Cc1cc(C(=O)Nc2ccc(C3CCCN(C)CC3)cc2C2=CCCCC2)no1 (stereo not drawn) [Compound 67c, 5-methyl-N-(5-(1-methylazepan-4-yl)-2′,3′,4′,5′-tetrahydro-[1,1′-biphenyl]-2-yl)isoxazole-3-carboxamide] |
| < 1e-07 | < 1e-07 | Cc1cc(C(=O)Nc2ccc(C3CCCN(C)CC3)cc2C2=CCC(C)(C)CC2)no1 (stereo not drawn) [Compound 68c] |
| < 1e-07 | – | CCN1CCC(c2ccc(NC(=O)c3cc(C)on3)c(C3=CCCCC3)c2)CC1 [Compound 70b, N-(5-(1-ethylpiperidin-4-yl)-2′,3′,4′,5′-tetrahydro-[1,1′-biphenyl]-2-yl)-5-methylisoxazole-3-carboxamide] |
| > 1e-06 | > 1e-06 | CCN1CCC(c2ccc(NC(=O)c3cc(C)on3)c(C3=CCCC3)c2)CC1 [Compound 71b, N-(2-(Cyclopent-1-en-1-yl)-4-(1-ethylpiperidin-4-yl)phenyl)-5-methylisoxazole-3-carboxamide] |
| < 1e-07 | < 1e-07 | CCN1CCC(c2ccc(NC(=O)c3cc(C)on3)c(C3=CCC(C)CC3)c2)CC1 (stereo not drawn) [Compound 72b, N-(5-(1-Ethylpiperidin-4-yl)-4′-methyl-2′,3′,4′,5′-tetrahydro-[1,1′-biphenyl]-2-yl)-5-methylisoxazole-3-carboxamide] |
| < 1e-07 | < 1e-07 | CCN1CCC(c2ccc(NC(=O)c3cc(C)on3)c(C3=CCC(C)(C)CC3)c2)CC1 [Compound 73b, N-(5-(1-ethylpiperidin-4-yl)-4′,4′-dimethyl-2′,3′,4′,5′-tetrahydro-[1,1′-biphenyl]-2-yl)-5-methylisoxazole-3-carboxamide] |
| > 1e-06 | > 1e-06 | CCN1CCC(c2ccc(NC(=O)c3cc(C)on3)c(C3CCCCC3)c2)CC1 [Compound 74b, N-(2-cyclohexyl-4-(1-ethylpiperidin-4-yl)phenyl)-5-methylisoxazole-3-carboxamide] |
| > 1e-06 | > 1e-06 | CCN1CCC(c2ccc(NC(=O)c3cc(C)on3)c(C3CCCC3)c2)CC1 [Compound 75b, N-(2-Cyclopentyl-4-(1-ethylpiperidin-4-yl)phenyl)-5-methylisoxazole-3-carboxamide] |
| < 1e-07 | 1e-07 to 1e-06 | CC(C)=CCN1CCC(c2ccc(NC(=O)c3cc(C)on3)c(C3=CCCCC3)c2)CC1 [Compound 76b, 5-methyl-N-(5-(1-(3-methylbut-2-en-1-yl)piperidin-4-yl)-2′,3′,4′,5′-tetrahydro-[1,1′-biphenyl]-2-yl)isoxazole-3-carboxamide] |
| < 1e-07 | < 1e-07 | Cc1cc(C(=O)Nc2ccc(C3CCN(CC4CC4)CC3)cc2C2=CCC(C)CC2)no1 (stereo not drawn) [Compound 77b, N-(5-(1-(cyclopropylmethyl)piperidin-4-yl)-4′-methyl-2,3,4,5′-tetrahydro-[1,1′-biphenyl]-2-yl)-5-methylisoxazole-3-carboxamide] |
| < 1e-07 | < 1e-07 | Cc1cc(C(=O)Nc2ccc(C3CCN(CC4CC4)CC3)cc2C2=CCC(C)(C)CC2)no1 [Compound 78b, N-(5-(1-(cyclopropylmethyl)piperidin-4-yl)-4′,4′-dimethyl-2′,3′,4′,5′-tetrahydro-[1,1′-biphenyl]-2-yl)-5-methylisoxazole-3-carboxamide] |
